Results on one molecule are retold here after patent US20230085307A1, “PYRIDAZINONE COMPOUND AND HERBICIDE” (NISSAN CHEMICAL CORPORATION, priority 2019, published 2023).

The structures appear in SMILES notation.

The first test concerns chickweed. The experiment in a line: Test Example 5: herbicidal effect by foliage application, plastic box (Table 20, symbol P). Format: in vivo, common chickweed (Stellaria media). The note with it: amount of applied herbicide 320 g/ha; foliage application after 14-day growth; evaluated three weeks after application. In outline:
(§1)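 Post-emergence foliar test in sterilized diluvial soil. Compound applied as water-diluted emulsion at a predetermined rate to 14-day-old plants; evaluation at three weeks.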
Consider `CCCC(=O)Oc1c(C)nn(C)c(=O)c1-c1c(-c2cccc(SCC)c2)sc2c(Cl)cccc12` [4-093], for which the “Herbicidal effect by foliage application, P: chickweed” value is 1 (Herbicidal rate of 5% or more and less than 20%).

The test system of another test is redroot pigweed. The test can be described thus: Test Example 5: herbicidal effect by foliage application, plastic box (Table 20, symbol N). Type of test: in vivo, redroot pigweed (Amaranthus retroflexus). The note with it: amount of applied herbicide 320 g/ha; foliage application after 14-day growth; evaluated three weeks after application. In outline: as §1
Turning to `CCCC(=O)Oc1c(C)nn(C)c(=O)c1-c1c(-c2cccc(SCC)c2)sc2c(Cl)cccc12` [4-093], the “Herbicidal effect by foliage application, N: redroot pigweed” value was 3 (Herbicidal rate of 40% or more and less than 70%).

A further test deals with southern crabgrass. The test can be described thus: Test Example 5: herbicidal effect by foliage application, plastic box (Table 20, symbol F). The note with it: amount of applied herbicide 320 g/ha; foliage application after 14-day growth; evaluated three weeks after application. Format: in vivo, southern crabgrass (Digitaria ciliaris). In outline: as §1
Consider `CCCC(=O)Oc1c(C)nn(C)c(=O)c1-c1c(-c2cccc(SCC)c2)sc2c(Cl)cccc12` [4-093], for which the “Herbicidal effect by foliage application, F: southern crabgrass” value was 0 (Herbicidal rate of 5% or less (almost no effect)).

Another test deals with windgrass. The test can be described thus: Test Example 5: herbicidal effect by foliage application, plastic box (Table 20, symbol L). Format: in vivo, windgrass (Apera spica-venti). The settings on record: amount of applied herbicide 320 g/ha; foliage application after 14-day growth; evaluated three weeks after application. In outline: as §1
For the molecule `CCCC(=O)Oc1c(C)nn(C)c(=O)c1-c1c(-c2cccc(SCC)c2)sc2c(Cl)cccc12` [4-093], the “Herbicidal effect by foliage application, L: windgrass” value is listed as 0 (Herbicidal rate of 5% or less (almost no effect)).

The test system of another test is rice flat sedge. The test can be described thus: Test Example 3: herbicidal effect by foliage application, Wagner pot (Table 18, symbol E). Format: in vivo, rice flat sedge (Cyperus iria). The settings on record: 320 g/ha. In outline: (§2)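 Plants were sown in alluvial soil held under 0.1–0.5 cm standing water and grown 14 days in a greenhouse at 25–30 °C. An emulsifiable formulation, water-diluted to the set dose, was then sprayed onto the foliage, and effects were scored three weeks later using previously defined criteria.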
Turning to `CCCC(=O)Oc1c(C)nn(C)c(=O)c1-c1c(-c2cccc(SCC)c2)sc2c(Cl)cccc12` [4-093], the “herbicidal effect on rice flat sedge (E)” value was 4 (Herbicidal rate of 70% or more and less than 90%).

In a further test the test system is persian speedwell. The experiment in a line: Test Example 5: herbicidal effect by foliage application, plastic box (Table 20, symbol R). Format: in vivo, Persian speedwell (Veronica persica). The settings on record: amount of applied herbicide 320 g/ha; foliage application after 14-day growth; evaluated three weeks after application. In outline:
as §1
Regarding `CCCC(=O)Oc1c(C)nn(C)c(=O)c1-c1c(-c2cccc(SCC)c2)sc2c(Cl)cccc12` [4-093], the “Herbicidal effect by foliage application, R: persian speedwell” value is 3 (Herbicidal rate of 40% or more and less than 70%).

In a further test the test system is wild oat. The experiment in a line: Test Example 5: herbicidal effect by foliage application, plastic box (Table 20, symbol I). Type of test: in vivo, wild oat (Avena fatua). The note with it: amount of applied herbicide 320 g/ha; foliage application after 14-day growth; evaluated three weeks after application. In outline:
as §1
Consider `CCCC(=O)Oc1c(C)nn(C)c(=O)c1-c1c(-c2cccc(SCC)c2)sc2c(Cl)cccc12` [4-093], for which the “Herbicidal effect by foliage application, I: wild oat” value was 1 (Herbicidal rate of 5% or more and less than 20%).

Another test has as its system barnyard grass. The experiment in a line: Test Example 5: herbicidal effect by foliage application, plastic box (Table 20, symbol H). The note with it: amount of applied herbicide 320 g/ha; foliage application after 14-day growth; evaluated three weeks after application. Type of test: in vivo, barnyard grass (Echinochloa crus-galli). In outline:
as §1
`CCCC(=O)Oc1c(C)nn(C)c(=O)c1-c1c(-c2cccc(SCC)c2)sc2c(Cl)cccc12` [4-093]: the “Herbicidal effect by foliage application, H: barnyard grass” value is 0 (Herbicidal rate of 5% or less (almost no effect)).

A further test deals with blackgrass. The experiment in a line: Test Example 5: herbicidal effect by foliage application, plastic box (Table 20, symbol J). The settings on record: amount of applied herbicide 320 g/ha; foliage application after 14-day growth; evaluated three weeks after application. Type of test: in vivo, blackgrass (Alopecurus myosuroides). In outline:
as §1
Turning to `CCCC(=O)Oc1c(C)nn(C)c(=O)c1-c1c(-c2cccc(SCC)c2)sc2c(Cl)cccc12` [4-093], the “Herbicidal effect by foliage application, J: blackgrass” value is given as 0 (Herbicidal rate of 5% or less (almost no effect)).

A further test deals with lambsquarters. The test can be described thus: Test Example 5: herbicidal effect by foliage application, plastic box (Table 20, symbol O). Type of test: in vivo, lambsquarters (Chenopodium album). The settings on record: amount of applied herbicide 320 g/ha; foliage application after 14-day growth; evaluated three weeks after application. In outline:
as §1
`CCCC(=O)Oc1c(C)nn(C)c(=O)c1-c1c(-c2cccc(SCC)c2)sc2c(Cl)cccc12` [4-093]: the “Herbicidal effect by foliage application, O: lambsquarters” value is 1 (Herbicidal rate of 5% or more and less than 20%).

The subject of the next test is velvetleaf. The experiment in a line: Test Example 5: herbicidal effect by foliage application, plastic box (Table 20, symbol M). Type of test: in vivo, velvetleaf (Abutilon theophrasti). The settings on record: amount of applied herbicide 320 g/ha; foliage application after 14-day growth; evaluated three weeks after application. In outline:
as §1
For `CCCC(=O)Oc1c(C)nn(C)c(=O)c1-c1c(-c2cccc(SCC)c2)sc2c(Cl)cccc12` [4-093], the “Herbicidal effect by foliage application, M: velvetleaf” value was 3 (Herbicidal rate of 40% or more and less than 70%).

A further test concerns Italian ryegrass. The experiment in a line: Test Example 5: herbicidal effect by foliage application, plastic box (Table 20, symbol K). Format: in vivo, Italian ryegrass (Lolium multiflorum). The note with it: amount of applied herbicide 320 g/ha; foliage application after 14-day growth; evaluated three weeks after application. In outline:
as §1
`CCCC(=O)Oc1c(C)nn(C)c(=O)c1-c1c(-c2cccc(SCC)c2)sc2c(Cl)cccc12` [4-093]: the “Herbicidal effect by foliage application, K: Italian ryegrass” value is 0 (Herbicidal rate of 5% or less (almost no effect)).

The test system of another test is green foxtail. The experiment in a line: Test Example 5: herbicidal effect by foliage application, plastic box (Table 20, symbol G). Type of test: in vivo, green foxtail (Setaria viridis). The settings on record: amount of applied herbicide 320 g/ha; foliage application after 14-day growth; evaluated three weeks after application. In outline:
as §1
In the case of `CCCC(=O)Oc1c(C)nn(C)c(=O)c1-c1c(-c2cccc(SCC)c2)sc2c(Cl)cccc12` [4-093], the “Herbicidal effect by foliage application, G: green foxtail” value is 2 (Herbicidal rate of 20% or more and less than 40%).

A further test deals with Chinese sprangletop. The experiment in a line: Test Example 3: herbicidal effect by foliage application, Wagner pot (Table 18, symbol D). Format: in vivo, chinese sprangletop (Leptochloa chinensis). The note with it: 320 g/ha. In outline: as §2
Consider `CCCC(=O)Oc1c(C)nn(C)c(=O)c1-c1c(-c2cccc(SCC)c2)sc2c(Cl)cccc12` [4-093], for which the “herbicidal effect on Chinese sprangletop (D)” value is 4 (Herbicidal rate of 70% or more and less than 90%).

The test system of the next test is barnyard grass. The experiment in a line: Test Example 3: herbicidal effect by foliage application, Wagner pot (Table 18, symbol H). Format: in vivo, barnyard grass (Echinochloa crus-galli). The settings on record: 320 g/ha. In outline: as §2
`CCCC(=O)Oc1c(C)nn(C)c(=O)c1-c1c(-c2cccc(SCC)c2)sc2c(Cl)cccc12` [4-093]: the “herbicidal effect on barnyard grass (H)” value is listed as 5 (Herbicidal rate of 90% or more (almost completely withered)).
